In patent US20260317344A1, “EGFR INHIBITORS FOR TREATING DISEASE” (BLOSSOMHILL THERAPEUTICS, INC., priority 2023, published 2026):

What was measured:
[1] = test system: PC-9 cells; assay: 5-Day CellTiter Glo (CTG) cell proliferation assay, PC-9; assay type: cell-based; settings: Homo sapiens; PC-9 cells (d746-750 EGFR), 5-day CTG proliferation, 120 hours; read-out: PC-9 IC50
Summary of the method: (§1)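 Luminescent ATP signal (CellTiter-Glo 2.0) after 120 hours of compound exposure gave IC50 values. PC-9 and HCC827 harbour EGFR d746-750; NCI-H1975 harbours L858R/T790M.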

[2] = target: EGFR (D746-750) (Homo sapiens, UniProt P00533, DEL746-750); assay: HotSpot radiometric kinase assay, inhibition of EGFR 746-750 mutant; assay type: biochemical; settings: 33P ATP, room temperature, 120 m
Summary of the method: (§2)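 Kinase/substrate pairs in 20 mM HEPES pH 7.5, 10 mM MgCl2, 1 mM EGTA, 0.02% Brij35, 0.02 mg/ml BSA, 0.1 mM Na3VO4, 2 mM DTT, 1% DMSO, preincubated ~20 min with compound. Reaction started with ATP/33P-ATP ([…]), run 120 min at room temperature; phosphorylation read by P81 filter binding, IC50 from curve fits.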

[3] = test system: NCI-H1975 cells; assay: 5-Day CellTiter Glo (CTG) cell proliferation assay, NCI-H1975; assay type: cell-based; settings: Homo sapiens; NCI-H1975 cells (L858R/T790M EGFR), 5-day CTG proliferation, 120 hours; read-out: H1975 IC50
Summary of the method: as §1

[4] = target: EGFR (D746-750/C797S) (Homo sapiens, UniProt P00533, C797S/DEL746-750); assay: HotSpot radiometric kinase assay, inhibition of EGFR 746-750/C797S mutant; assay type: biochemical; settings: 33P ATP, room temperature, 120 m
Summary of the method: as §2

[5] = test system: BaF3 cells with engineered EGFR d746-750/T790M; assay: 3-Day CellTiter Glo (CTG) cell proliferation assay, BaF3 EGFR d746-750/T790M; assay type: cell-based; settings: Mus musculus; BaF3 EGFR d746-750/T790M cells, 3-day CTG proliferation, 72 hours
Summary of the method: (§3)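 Viability after 72 h compound exposure (9 concentrations, 37° C, 5% CO2) was measured as ATP luminescence with CellTiter-Glo 2.0 in EGFR-mutant-engineered BaF3 cells plated at one thousand cells per well. IC50 values obtained by curve fitting.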

[6] = target: EGFR (L858R/T790M/C797S) (Homo sapiens, UniProt P00533, C797S/L858R/T790M); assay: HotSpot radiometric kinase assay, inhibition of EGFR L858R/T790M/C797S mutant; assay type: biochemical; settings: 33P ATP, room temperature, 120 m
Summary of the method: as §2

[7] = target: EGFR (D770_N771insNPG) (Homo sapiens, UniProt P00533, INS770NPG); assay: HotSpot radiometric kinase assay, inhibition of EGFR (D770_N771insNPG) mutant; assay type: biochemical; settings: 33P ATP, room temperature, 120 m
Summary of the method: as §2

[8] = test system: HCC827 cells; assay: 5-Day CellTiter Glo (CTG) cell proliferation assay, HCC827; assay type: cell-based; settings: Homo sapiens; HCC827 cells (d746-750 EGFR), 5-day CTG proliferation, 120 hours; read-out: HCC827 IC50
Summary of the method: as §1

[9] = test system: BaF3 cells with engineered EGFR L858R/T790M/C797S; assay: 3-Day CellTiter Glo (CTG) cell proliferation assay, BaF3 EGFR L858R/T790M/C797S; assay type: cell-based; settings: Mus musculus, 3-day CTG proliferation, 72 hours
Summary of the method: as §3

[10] = target: T1, pEGFR, PC-9 cells (d746-750 EGFR) (Homo sapiens, UniProt P00533, DEL746-750); assay: Cellular EGFR phosphorylation assay (LANCE Ultra TR-FRET) in PC-9 cells; assay type: cell-based; settings: 4 hours at 37° C., read-out: PC-9 pEGFR IC50
T1 construct: pEGFR (Tyr1068) TR-FRET
Summary of the method: (§4)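 Phospho-EGFR (Tyr1068) measured by TR-FRET in lysates after 4 h compound exposure at 37° C (9 doses, 3-fold steps). A431 cells, seeded at 30 thousand per well, received 40 ng/mL EGF for the last 10 min; PC-9 and NCI-H1975 seeded at 50 thousand per well, unstimulated. IC50 values reported.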

[11] = test system: BaF3 cells with engineered EGFR L858R/C797S; assay: 3-Day CellTiter Glo (CTG) cell proliferation assay, BaF3 EGFR L858R/C797S; assay type: cell-based; settings: Mus musculus, 3-day CTG proliferation, 72 hours
Summary of the method: as §3

[12] = target: T2, pEGFR, A431 cells (wildtype EGFR) (Homo sapiens, UniProt P00533); assay: Cellular EGFR phosphorylation assay (LANCE Ultra TR-FRET) in A431 cells; assay type: cell-based; settings: 4 hours at 37° C., 40 ng/mL EGF for the final 10 minutes, read-out: A431 pEGFR IC50
T2 construct: pEGFR (Tyr1068) TR-FRET
Summary of the method: as §4

[13] = target: T3, pEGFR, NCI-H1975 cells (L858R/T790M EGFR) (Homo sapiens, UniProt P00533, L858R/T790M); assay: Cellular EGFR phosphorylation assay (LANCE Ultra TR-FRET) in NCI-H1975 cells; assay type: cell-based; settings: 4 hours at 37° C., read-out: H1975 pEGFR IC50
T3 construct: pEGFR (Tyr1068) TR-FRET
Summary of the method: as §4

T2 sequence (P00533 25-1210): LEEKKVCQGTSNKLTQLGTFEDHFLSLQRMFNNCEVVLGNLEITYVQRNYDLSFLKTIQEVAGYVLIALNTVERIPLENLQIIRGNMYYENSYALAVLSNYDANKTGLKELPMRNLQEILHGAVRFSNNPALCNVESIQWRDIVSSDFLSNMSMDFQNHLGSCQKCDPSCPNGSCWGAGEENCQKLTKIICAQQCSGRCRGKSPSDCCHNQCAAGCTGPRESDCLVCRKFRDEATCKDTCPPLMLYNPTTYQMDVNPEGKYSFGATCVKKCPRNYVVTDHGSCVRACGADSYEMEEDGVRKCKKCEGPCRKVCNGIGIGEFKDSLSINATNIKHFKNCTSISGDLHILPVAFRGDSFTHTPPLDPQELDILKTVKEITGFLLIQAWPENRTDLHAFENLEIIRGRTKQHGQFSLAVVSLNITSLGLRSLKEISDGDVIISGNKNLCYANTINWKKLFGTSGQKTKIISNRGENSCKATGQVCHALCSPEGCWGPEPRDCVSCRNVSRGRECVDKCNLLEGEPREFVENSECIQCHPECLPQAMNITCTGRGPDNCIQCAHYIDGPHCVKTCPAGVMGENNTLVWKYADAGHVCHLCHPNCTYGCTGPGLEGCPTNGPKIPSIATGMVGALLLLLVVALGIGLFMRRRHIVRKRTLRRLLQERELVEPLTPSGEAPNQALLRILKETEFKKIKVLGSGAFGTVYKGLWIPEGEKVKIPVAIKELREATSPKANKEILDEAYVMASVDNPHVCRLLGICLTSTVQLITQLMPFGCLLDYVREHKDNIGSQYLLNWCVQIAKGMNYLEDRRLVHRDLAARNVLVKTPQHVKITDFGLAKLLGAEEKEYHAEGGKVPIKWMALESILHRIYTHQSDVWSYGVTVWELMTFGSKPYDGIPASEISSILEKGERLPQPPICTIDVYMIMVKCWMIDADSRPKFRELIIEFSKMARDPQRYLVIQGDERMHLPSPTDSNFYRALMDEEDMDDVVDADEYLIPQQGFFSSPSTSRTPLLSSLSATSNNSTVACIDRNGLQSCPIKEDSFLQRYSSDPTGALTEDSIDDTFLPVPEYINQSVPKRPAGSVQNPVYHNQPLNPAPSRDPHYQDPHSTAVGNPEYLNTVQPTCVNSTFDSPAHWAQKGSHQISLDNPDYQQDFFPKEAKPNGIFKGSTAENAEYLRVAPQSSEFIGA
Chain of EGFR (D746-750) (P00533 with tags, fused parts or gaps DEL746-750): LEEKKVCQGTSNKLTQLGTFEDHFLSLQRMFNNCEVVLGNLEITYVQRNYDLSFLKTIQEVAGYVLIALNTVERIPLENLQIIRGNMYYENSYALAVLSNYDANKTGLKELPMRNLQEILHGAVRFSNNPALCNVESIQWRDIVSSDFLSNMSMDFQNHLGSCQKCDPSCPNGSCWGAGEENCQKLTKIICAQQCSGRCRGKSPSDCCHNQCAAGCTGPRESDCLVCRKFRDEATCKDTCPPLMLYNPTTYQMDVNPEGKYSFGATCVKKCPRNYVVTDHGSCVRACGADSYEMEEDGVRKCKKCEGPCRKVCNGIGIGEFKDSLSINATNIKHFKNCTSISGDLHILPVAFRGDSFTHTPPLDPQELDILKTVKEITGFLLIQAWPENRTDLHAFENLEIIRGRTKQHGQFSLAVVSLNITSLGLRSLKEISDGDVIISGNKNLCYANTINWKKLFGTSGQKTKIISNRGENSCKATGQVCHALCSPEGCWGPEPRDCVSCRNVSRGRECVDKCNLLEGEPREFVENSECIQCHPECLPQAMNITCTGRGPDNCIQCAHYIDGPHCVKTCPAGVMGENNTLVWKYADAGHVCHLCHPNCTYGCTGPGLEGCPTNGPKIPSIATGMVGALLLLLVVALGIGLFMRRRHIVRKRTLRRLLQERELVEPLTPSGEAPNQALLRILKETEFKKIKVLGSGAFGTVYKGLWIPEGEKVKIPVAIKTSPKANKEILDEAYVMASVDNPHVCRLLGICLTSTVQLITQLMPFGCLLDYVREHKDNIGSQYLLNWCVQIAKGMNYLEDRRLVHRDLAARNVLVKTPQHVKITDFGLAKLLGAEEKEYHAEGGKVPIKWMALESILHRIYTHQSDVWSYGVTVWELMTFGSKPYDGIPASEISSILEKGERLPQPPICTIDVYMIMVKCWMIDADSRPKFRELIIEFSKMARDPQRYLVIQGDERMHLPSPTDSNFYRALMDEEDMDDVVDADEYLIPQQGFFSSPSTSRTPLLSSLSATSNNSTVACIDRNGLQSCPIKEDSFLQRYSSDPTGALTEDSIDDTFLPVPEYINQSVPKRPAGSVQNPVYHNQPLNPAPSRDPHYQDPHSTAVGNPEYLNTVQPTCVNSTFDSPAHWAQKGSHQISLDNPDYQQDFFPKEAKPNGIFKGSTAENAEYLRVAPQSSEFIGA
T1 sequence (P00533 with tags, fused parts or gaps DEL746-750): as above
Chain of EGFR (D770_N771insNPG) (P00533 with tags, fused parts or gaps INS770NPG limits assumed): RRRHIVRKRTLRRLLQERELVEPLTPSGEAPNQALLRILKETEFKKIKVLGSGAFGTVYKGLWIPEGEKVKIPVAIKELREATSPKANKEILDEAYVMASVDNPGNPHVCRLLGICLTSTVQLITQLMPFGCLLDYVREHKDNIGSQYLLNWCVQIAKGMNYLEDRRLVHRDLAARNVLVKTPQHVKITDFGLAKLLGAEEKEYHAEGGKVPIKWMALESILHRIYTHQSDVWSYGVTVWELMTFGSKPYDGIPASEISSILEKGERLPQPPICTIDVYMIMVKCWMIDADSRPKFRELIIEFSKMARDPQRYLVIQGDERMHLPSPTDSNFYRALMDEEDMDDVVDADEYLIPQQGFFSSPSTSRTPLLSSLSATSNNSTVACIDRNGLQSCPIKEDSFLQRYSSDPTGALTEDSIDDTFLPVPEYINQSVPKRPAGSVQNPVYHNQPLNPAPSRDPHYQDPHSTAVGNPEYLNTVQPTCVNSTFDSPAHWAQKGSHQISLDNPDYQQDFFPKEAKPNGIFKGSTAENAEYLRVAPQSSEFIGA

Row | Structure (SMILES) | IC50 [1] [nM] | IC50 [2] [nM] | IC50 [3] [nM] | IC50 [4] [nM] | IC50 [5] [nM] | IC50 [6] [nM] | IC50 [7] [nM] | IC50 [8] [nM] | IC50 [9] [nM] | IC50 [10] [nM] | IC50 [11] [nM] | IC50 [12] [nM] | IC50 [13] [nM]
1 | Cc1nn(C)c2c1-c1cc3c(n[nH]c3cn1)/C=C/c1c(OCC#N)nn([C@@H](C)CO)c1CN(C)C[C@H](C)O2 [Ex. 53, {[(10S,17E)-14-[(2S)-1-hydroxypropan-2-yl]-6,8,10,12-tetramethyl-2,10,11,12,13,14-hexahydro-8H-5,3-(azenometheno)tripyrazolo[3,4-f:3′,4′-j:4″,3″-n][1,4]oxazacyclopentadecin-16-yl]oxy}acetonitrile] | 2.94 | 0.37 | 15.7 | 1.12 | 4.31 | 0.67 | 0.45 | 1.1 | 1.57 | 2.57 | 0.18 | 21 | 8.74
2 | CCOc1nn([C@@H](C)CO)c2c1/C=C/c1n[nH]c3cnc(cc13)-c1c(C)nn(C)c1O[C@@H](C)[C@H]1CCCN1C2 [Ex. 56, (2S)-2-[(8aR,9S,19E)-1-ethoxy-9,11,13-trimethyl-7,8,8a,9,11,17-hexahydro-6H-14,16-(azenometheno)tripyrazolo[3,4-f:3′,4′-j:4″,3″-n]pyrrolo[2,1-c][1,4]oxazacyclopentadecin-3(4H)-yl]propan-1-ol] | 0.32 | 0.45 | 0.92 | 1.11 | 0.48 | 0.98 | 0.67 | 0.28 | 0.61 | 0.82 | 0.05 | 8.41 | 1.26
3 | CCOc1nn([C@@H](C)CO)c2c1/C=C/c1n[nH]c3cnc(cc13)-c1c(C)nn(C)c1OCCN(C)C2 [Ex. 59, (2S)-2-[(17E)-16-ethoxy-6,8,12-trimethyl-2,8,10,11,12,13-hexahydro-14H-5,3-(azenometheno)tripyrazolo[3,4-f:3′,4′-j:4″,3″-n][1,4]oxazacyclopentadecin-14-yl]propan-1-ol] | 3.21 | 0.37 | 15.7 | 1.33 | 3.62 | 0.99 | 1.13 | 0.94 | 0.91 | 1.96 | 0.18 | 5.29 | 1.43

More lines, in order of falling IC50 [1], values ahead:

Row | IC50 [1] [nM] | IC50 [2] [nM] | IC50 [3] [nM] | IC50 [4] [nM] | IC50 [5] [nM] | IC50 [6] [nM] | IC50 [7] [nM] | IC50 [8] [nM] | IC50 [9] [nM] | IC50 [10] [nM] | IC50 [11] [nM] | IC50 [12] [nM] | IC50 [13] [nM] | Structure (SMILES)
4 | 21.9 | 0.8 | 68.2 | 1.38 | 61.8 | 0.86 | 4.83 | 8.59 | 1.77 | 11.3 | 0.69 | 26.1 | 10.5 | Cc1nn([C@@H](C)CO)c2c1/C=C/c1n[nH]c3c(C)nc(cc13)-c1c(C)nn(C)c1O[C@@H](C)CN(C)C2 [Ex. 57, (2S)-2-[(10S,17E)-6,8,10,12,16,20-hexamethyl-2,8,10,11,12,13-hexahydro-14H-5,3-(azenometheno)tripyrazolo[3,4-f:3′,4′-j:4″,3″-n][1,4]oxazacyclopentadecin-14-yl]propan-1-ol]
5 | 17.8 | 0.18 | 55.6 | 0.63 | 17.1 | 0.37 | 0.23 | 2.08 | 1.21 | 3.14 | 0.16 | 37 | 6.12 | Cc1nn(C)c2c1-c1cc3c(n[nH]c3cn1)/C=C/c1c(C#N)nn([C@@H](C)CO)c1CN(C)C[C@H](C)O2 [Ex. 48, (10S,17E)-14-[(2S)-1-hydroxypropan-2-yl]-6,8,10,12-tetramethyl-2,10,11,12,13,14-hexahydro-8H-5,3-(azenometheno)tripyrazolo[3,4-f:3′,4′-j:4″,3″-n∥1,4]oxazacyclopentadecine-16-carbonitrile]
